Measured values published in patent US11661426B2, “Imidazole-containing inhibitors of ALK2 kinase” (BioCryst Pharmaceuticals, Inc., priority 2017, dated 2023).

Each compound was assayed against ALK2 (Homo sapiens (Human), UniProt Q04771) (assay: ALK2 inhibition, LanthaScreen Eu Kinase Binding Assay (ThermoFisher Scientific / Life Technologies)). Conditions: read-out: Measured Ki (IC50) Value for Compounds: IC50.
Chain of ALK2 (Q04771 21-509): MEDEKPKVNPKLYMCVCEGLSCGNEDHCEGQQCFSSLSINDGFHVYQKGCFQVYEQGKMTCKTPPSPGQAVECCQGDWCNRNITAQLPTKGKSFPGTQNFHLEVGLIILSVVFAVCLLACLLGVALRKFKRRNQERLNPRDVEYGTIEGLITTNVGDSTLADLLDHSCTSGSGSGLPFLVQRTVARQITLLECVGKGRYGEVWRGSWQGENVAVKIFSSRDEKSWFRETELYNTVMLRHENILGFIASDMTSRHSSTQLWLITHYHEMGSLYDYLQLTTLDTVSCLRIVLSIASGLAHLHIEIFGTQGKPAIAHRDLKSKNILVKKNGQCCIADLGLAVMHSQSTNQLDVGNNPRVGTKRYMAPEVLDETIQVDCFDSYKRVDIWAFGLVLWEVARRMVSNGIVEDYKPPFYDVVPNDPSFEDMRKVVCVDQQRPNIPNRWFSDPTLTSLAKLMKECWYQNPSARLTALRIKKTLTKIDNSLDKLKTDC
Description: Biochemical assays to measure the inhibitory effects of the compounds were performed by ThermoFisher Scientific (Life Technologies). ALK2 inhibition was tested using LanthaScreen™ Eu Kinase Binding Assay screening protocol.
For `COc1cc(-n2cnc(Nc3nc(N4CCC[C@H]4C(N)=O)nc4c3c(C)nn4C)c2)cc(OC)c1OC` [Compound 373c, (S)-1-(1,3-dimethyl-4-((1-(3,4,5-trimethoxyphenyl)-1H-imidazol-4-yl)amino)-1H-pyrazolo[3,4-d]pyrimidin-6-yl)pyrrolidine-2-carboxamide], the IC50 was over 1000 nM.
Compound `COc1cc(-n2cnc(Nc3nc(N4CCC[C@H]4CO)nc4c3c(C)nn4C)c2)cc(OC)c1OC` [Compound 374a, (S)-(1-(1,3-dimethyl-4-((1-(3,4,5-trimethoxyphenyl)-1H-imidazol-4-yl)amino)-1H-pyrazolo[3,4-d]pyrimidin-6-yl)pyrrolidin-2-yl)methanol] has an IC50 of 100 to 1000 nM.
`COc1cc(-n2cnc(Nc3nc(N4CCC[C@H]4CO)nc4cc(N5CCN(C)CC5)ccc34)c2)cc(OC)c1OC` [Compound 375a, (S)-(1-(7-(4-methylpiperazin-1-yl)-4-((1-(3,4,5-trimethoxyphenyl)-1H-imidazol-4-yl)amino)quinazolin-2-yl)pyrrolidin-2-yl)methanol] was tested, and the IC50 was under 100 nM.
`COc1cc(-n2cnc(Nc3nc(N4CCC[C@H]4CO)nc4cc(N5CCNCC5)ccc34)c2)cc(OC)c1OC` [Compound 376b, (S)-(1-(7-(piperazin-1-yl)-4-((1-(3,4,5-trimethoxyphenyl)-1H-imidazol-4-yl)amino)quinazolin-2-yl)pyrrolidin-2-yl)methanol] showed an IC50 of under 100 nM.
`COc1cc(-n2cnc(Nc3nc(N4CCC[C@H]4CO)c4c(C)nn(C)c4n3)c2)cc(OC)c1OC` [Compound 377b, (S)-(1-(1,3-dimethyl-6-((1-(3,4,5-trimethoxyphenyl)-1H-imidazol-4-yl)amino)-1H-pyrazolo[3,4-d]pyrimidin-4-yl)pyrrolidin-2-yl)methanol] was tested, and the IC50 was under 100 nM.
Compound `COc1cc(-n2cnc(Nc3nc(N4CCC[C@H]4CO)nc4cnccc34)c2)cc(OC)c1OC` [Compound 378c, (S)-(1-(4-((1-(3,4,5-trimethoxyphenyl)-1H-imidazol-4-yl)amino)pyrido[3,4-d]pyrimidin-2-yl)pyrrolidin-2-yl)methanol] has an IC50 of under 100 nM.
For `COc1cc(-n2cnc(Nc3nc(N4CCC[C@H]4C(N)=O)nc4cnccc34)c2)cc(OC)c1OC` [Compound 379a, (S)-1-(4-((1-(3,4,5-trimethoxyphenyl)-1H-imidazol-4-yl)amino)pyrido[3,4-d]pyrimidin-2-yl)pyrrolidine-2-carboxamide], the IC50 was under 100 nM.
In the case of `COc1cc(-n2cnc(Nc3nc(N4CC5(CC5)C[C@H]4CO)c4cccn4n3)c2)cc(OC)c1OC` [Compound 380d, (S)-(5-(2-((1-(3,4,5-trimethoxyphenyl)-1H-imidazol-4-yl)amino)pyrrolo[2,1-f][1,2,4]triazin-4-yl)-5-azaspiro[2.4]heptan-6-yl)methanol], the IC50 is reported as under 100 nM.
`COc1cc(-n2cnc(Nc3nc(N4CCC[C@H]4CO)c4ccncc4n3)c2)cc(OC)c1OC` [Compound 381b, (S)-(1-(2-((1-(3,4,5-trimethoxyphenyl)-1H-imidazol-4-yl)amino)pyrido[3,4-d]pyrimidin-4-yl)pyrrolidin-2-yl)methanol] was tested, and the IC50 was under 100 nM.
With `COc1cc(-n2cnc(Nc3nc(N4CCC[C@@H]4CO)nc4cc(Br)ccc34)c2)cc(OC)c1OC` [Compound 382a, (R)-(1-(7-bromo-4-((1-(3,4,5-trimethoxyphenyl)-1H-imidazol-4-yl)amino)quinazolin-2-yl)pyrrolidin-2-yl)methanol] the IC50 was under 100 nM.
`COc1cc(-n2cnc(Nc3nc(N4CCC[C@@H]4CO)nc4cc(N5CCN(C)CC5)ccc34)c2)cc(OC)c1OC` [Compound 383a, (R)-(1-(7-(4-methylpiperazin-1-yl)-4-((1-(3,4,5-trimethoxyphenyl)-1H-imidazol-4-yl)amino)quinazolin-2-yl)pyrrolidin-2-yl)methanol] showed an IC50 of under 100 nM.
`COc1cc(-n2cnc(Nc3nc(N4CCC[C@H]4CO)nc4sc(CN5CCCC5)cc34)c2)cc(OC)c1OC` [Compound 384b, (S)-(1-(6-(pyrrolidin-1-ylmethyl)-4-((1-(3,4,5-trimethoxyphenyl)-1H-imidazol-4-yl)amino)thieno[2,3-d]pyrimidin-2-yl)pyrrolidin-2-yl)methanol] gave an IC50 of under 100 nM.
`COc1cc(-n2cnc(Nc3nc(N4CCC[C@H]4CO)c4ccc(C5=CCNCC5)cc4n3)c2)cc(OC)c1OC` [Compound 385c, (S)-(1-(7-(1,2,3,6-tetrahydropyridin-4-yl)-2-((1-(3,4,5-trimethoxyphenyl)-1H-imidazol-4-yl)amino)quinazolin-4-yl)pyrrolidin-2-yl)methanol] gave an IC50 of under 100 nM.
With `COc1cc(-n2cnc(Nc3nc(N4CCC[C@H]4CO)nc4c3ncn4C)c2)cc(OC)c1OC` [Compound 386c, (S)-(1-(9-methyl-6-((1-(3,4,5-trimethoxyphenyl)-1H-imidazol-4-yl)amino)-9H-purin-2-yl)pyrrolidin-2-yl)methanol] the IC50 was under 100 nM.
In the case of `COc1cc(-n2cnc(Nc3nc(N4CCC[C@H]4C(N)=O)nc4c3ncn4C)c2)cc(OC)c1OC` [Compound 387a, (S)-1-(9-methyl-6-((1-(3,4,5-trimethoxyphenyl)-1H-imidazol-4-yl)amino)-9H-purin-2-yl)pyrrolidine-2-carboxamide], the IC50 is reported as under 100 nM.
Work on `COc1cc(-n2cnc(Nc3nc(N4CCC[C@H]4CO)c4ncn(C)c4n3)c2)cc(OC)c1OC` [Compound 388b, (S)-(1-(9-methyl-2-((1-(3,4,5-trimethoxyphenyl)-1H-imidazol-4-yl)amino)-9H-purin-6-yl)pyrrolidin-2-yl)methanol] yielded an IC50 of under 100 nM.
`COc1cc(-n2cnc(Nc3nc(N4CCC[C@H]4CO)c4c(ncn4C)n3)c2)cc(OC)c1OC` [Compound 389c, (S)-(1-(7-methyl-2-((1-(3,4,5-trimethoxyphenyl)-1H-imidazol-4-yl)amino)-7H-purin-6-yl)pyrrolidin-2-yl)methanol] was tested, and the IC50 was under 100 nM.
With `COc1cc(-n2cnc(Nc3nc(N4CCC[C@H]4C(N)=O)nc4ncn(C)c34)c2)cc(OC)c1OC` [Compound 390b, (S)-1-(7-methyl-6-((1-(3,4,5-trimethoxyphenyl)-1H-imidazol-4-yl)amino)-7H-purin-2-yl)pyrrolidine-2-carboxamide] the IC50 was over 1000 nM.
Compound `COc1cc(-n2cnc(Nc3nc(N4CCC[C@H]4CO)nc4cc(C)ccc34)c2)cc(OC)c1OC` [Compound 391c, (S)-(1-(7-methyl-4-((1-(3,4,5-trimethoxyphenyl)-1H-imidazol-4-yl)amino)quinazolin-2-yl)pyrrolidin-2-yl)methanol] has an IC50 of under 100 nM.
`COc1cc(-n2cnc(Nc3nc(N4CCC[C@H]4C(N)=O)nc4cc(C)ccc34)c2)cc(OC)c1OC` [Compound 392a, (S)-1-(7-methyl-4-((1-(3,4,5-trimethoxyphenyl)-1H-imidazol-4-yl)amino)quinazolin-2-yl)pyrrolidine-2-carboxamide] showed an IC50 of under 100 nM.
`COc1cc(-n2cnc(Nc3nc(N4CCC[C@H]4CO)c4ccc(C)cc4n3)c2)cc(OC)c1OC` [Compound 393b, (S)-(1-(7-methyl-2-((1-(3,4,5-trimethoxyphenyl)-1H-imidazol-4-yl)amino)quinazolin-4-yl)pyrrolidin-2-yl)methanol] showed an IC50 of 100 to 1000 nM.
Work on `COc1cc(-n2cnc(Nc3nc4c(c(N5[C@H](CO)C[C@H]6C[C@H]65)n3)CCC4)c2)cc(OC)c1OC` [Compound 394b, ((1R,3S,5R)-2-(2-((1-(3,4,5-trimethoxyphenyl)-1H-imidazol-4-yl)amino)-6,7-dihydro-5H-cyclopenta[d]pyrimidin-4-yl)-2-azabicyclo[3.1.0]hexan-3-yl)methanol] yielded an IC50 of under 100 nM.
For `COc1cc(-n2cnc(Nc3nc(N4CCC[C@H]4C(N)=O)nc4[nH]cc(C#N)c34)c2)cc(OC)c1OC` [Compound 395d, (S)-1-(5-cyano-4-((1-(3,4,5-trimethoxyphenyl)-1H-imidazol-4-yl)amino)-7H-pyrrolo[2,3-d]pyrimidin-2-yl)pyrrolidine-2-carboxamide], the IC50 was over 1000 nM.
`COc1cc(-n2cnc(Nc3nc(N4[C@H](CO)C[C@H]5C[C@H]54)nc4c3CCC4)c2)cc(OC)c1OC` [Compound 396a, ((1R,3S,5R)-2-(4-((1-(3,4,5-trimethoxyphenyl)-1H-imidazol-4-yl)amino)-6,7-dihydro-5H-cyclopenta[d]pyrimidin-2-yl)-2-azabicyclo[3.1.0]hexan-3-yl)methanol] showed an IC50 of under 100 nM.
`COc1cc(-n2cnc(Nc3nc(N4CCC[C@H]4CO)nc4[nH]cc(C#N)c34)c2)cc(OC)c1OC` [Compound 397a, (S)-2-(2-(hydroxymethyl)pyrrolidin-1-yl)-4-((1-(3,4,5-trimethoxyphenyl)-1H-imidazol-4-yl)amino)-7H-pyrrolo[2,3-d]pyrimidine-5-carbonitrile] showed an IC50 of 100 to 1000 nM.
`COc1cc(-n2cnc(Nc3nc4c(c(N5CCC[C@H]5CO)n3)CCCCC4)c2)cc(OC)c1OC` [Compound 398c, (S)-(1-(2-((1-(3,4,5-trimethoxyphenyl)-1H-imidazol-4-yl)amino)-6,7,8,9-tetrahydro-5H-cyclohepta[d]pyrimidin-4-yl)pyrrolidin-2-yl)methanol] was tested, and the IC50 was under 100 nM.
Work on `COc1cc(-n2cnc(Nc3nc(N4CCC[C@H]4CO)nc4cc(CN5CCCC5)ccc34)c2)cc(OC)c1OC` [Compound 399f, (S)-(1-(7-(pyrrolidin-1-ylmethyl)-4-((1-(3,4,5-trimethoxyphenyl)-1H-imidazol-4-yl)amino)quinazolin-2-yl)pyrrolidin-2-yl)methanol] yielded an IC50 of under 100 nM.
Work on `COc1cc(-n2cnc(Nc3nc(N4CCC[C@H]4CO)nc4c3c(C)nn4C3CCCCO3)c2)cc(OC)c1OC` (stereo partly drawn) [Compound 400c, ((2S)-1-(3-methyl-1-(tetrahydro-2H-pyran-2-yl)-4-((1-(3,4,5-trimethoxyphenyl)-1H-imidazol-4-yl)amino)-1H-pyrazolo[3,4-d]pyrimidin-6-yl)pyrrolidin-2-yl)methanol] yielded an IC50 of 100 to 1000 nM.
For `COc1cc(-n2cnc(Nc3nc(N4CCC[C@H]4CO)nc4[nH]nc(C)c34)c2)cc(OC)c1OC` [Compound 400d, (S)-(1-(3-methyl-4-((1-(3,4,5-trimethoxyphenyl)-1H-imidazol-4-yl)amino)-1H-pyrazolo[3,4-d]pyrimidin-6-yl)pyrrolidin-2-yl)methanol], the IC50 was 100 to 1000 nM.
